From ChEMBL document CHEMBL3853300, “Synthesis of α-santonin derived acetyl santonous acid triazole derivatives and their bioevaluation for T and B-cell proliferation” (Eur J Med Chem, 2016)

Legend:
Mus musculus [1] = species: Mus musculus; assay: Cytotoxicity against Balb/c mouse T cells assessed as decrease in cell viability at 1 uM after 48 hrs by MTT assay; format: toxicity, cell-based
Mus musculus [2] = species: Mus musculus; assay: Cytotoxicity against Balb/c mouse B cells assessed as decrease in cell viability at 1 uM after 48 hrs by MTT assay; format: toxicity, cell-based
[3] = Immunostimulatory activity in Balb/c mouse B cells assessed as induction of LPS-induced cell proliferation at 100 uM after 48 hrs by MTT assay relative to control; format: cell-based
Mus musculus [4] = species: Mus musculus; assay: Cytotoxicity against Balb/c mouse T cells assessed as decrease in cell viability at 10 uM after 48 hrs by MTT assay; format: toxicity, cell-based
[5] = Immunosuppressive activity in Balb/c mouse T cells assessed as inhibition of ConA-induced cell proliferation at 1 uM after 48 hrs by MTT assay relative to control; format: functional
[6] = Immunostimulatory activity in Balb/c mouse B cells assessed as induction of LPS-induced cell proliferation at 1 uM after 48 hrs by MTT assay relative to control; format: cell-based
Mus musculus [7] = species: Mus musculus; assay: Cytotoxicity against Balb/c mouse B cells assessed as decrease in cell viability at 10 uM after 48 hrs by MTT assay; format: toxicity, cell-based
Mus musculus [8] = species: Mus musculus; assay: Cytotoxicity against Balb/c mouse B cells assessed as decrease in cell viability at 100 uM after 48 hrs by MTT assay; format: toxicity, cell-based
[9] = Immunosuppressive activity in Balb/c mouse T cells assessed as inhibition of ConA-induced cell proliferation at 10 uM after 48 hrs by MTT assay relative to control; format: functional
[10] = Immunostimulatory activity in Balb/c mouse B cells assessed as induction of LPS-induced cell proliferation at 10 uM after 48 hrs by MTT assay relative to control; format: cell-based
[11] = Immunosuppressive activity in Balb/c mouse T cells assessed as inhibition of ConA-induced cell proliferation at 100 uM after 48 hrs by MTT assay relative to control; format: functional
Mus musculus [12] = species: Mus musculus; assay: Cytotoxicity against Balb/c mouse T cells assessed as decrease in cell viability at 100 uM after 48 hrs by MTT assay; format: toxicity, cell-based
[13] = Immunosuppressive activity in Balb/c mouse B cells assessed as inhibition of LPS-induced cell proliferation at 50 uM after 48 hrs by MTT assay relative to control; format: functional
[14] = Immunosuppressive activity in Balb/c mouse B cells assessed as inhibition of LPS-induced cell proliferation at 100 uM after 48 hrs by MTT assay relative to control; format: functional
[15] = Immunosuppressive activity in Balb/c mouse B cells assessed as inhibition of LPS-induced cell proliferation at 1 uM after 48 hrs by MTT assay relative to control; format: functional
[16] = Immunosuppressive activity in Balb/c mouse B cells assessed as inhibition of LPS-induced cell proliferation at 10 uM after 48 hrs by MTT assay relative to control; format: functional
T-cell = assay: Immunosuppressive activity in Balb/c mouse T cells assessed as inhibition of ConA-induced cell proliferation after 48 hrs by MTT assay relative to control; format: functional, cell-based
B = assay: Immunosuppressive activity in Balb/c mouse B cells assessed as inhibition of LPS-induced cell proliferation after 48 hrs by MTT assay relative to control; format: functional, cell-based

Compound | Activity (Mus musculus [1]) | Activity (Mus musculus [2]) | Activity [3] [%] | Activity (Mus musculus [4]) | inhibition at 1 µM [5] [%] | Activity [6] [%] | Activity (Mus musculus [7]) | Activity (Mus musculus [8]) | inhibition at 10 µM [9] [%] | Activity [10] [%] | inhibition at 100 µM [11] [%] | Activity (Mus musculus [12]) | inhibition at 50 µM [13] [%] | inhibition at 100 µM [14] [%] | inhibition at 1 µM [15] [%] | inhibition at 10 µM [16] [%] | inhibition (T-cell) | inhibition (B)
CC(=O)Oc1cc(C)c2c(c1C)C[C@H]([C@@H](C)C(=O)OCc1cn(-c3cccc(C#N)c3)nn1)CC2 | Toxic | Toxic | 37.71 | Non-Toxic | 20.4 | 8 | Non-Toxic | Toxic | 25.9 | 42.28 | 45.4 | Toxic |  |  |  |  |  | 
CC(=O)Oc1cc(C)c2c(c1C)C[C@H]([C@@H](C)C(=O)O)CC2 | Toxic | Toxic |  | Toxic | 31.8 |  | Toxic | Non-Toxic | 52.3 |  | 75 | Non-Toxic | 75 | 71.8 | 58.8 | 57.2 | Dose-dependent effect | Dose-dependent effect
